Assay results from article PMC9019100, “Development of NanoLuc-targeting protein degraders and a universal reporter system to benchmark tag-targeted degradation platforms” (Nature Communications, 2022).

Tests used:
Assay type in all cases: cell-based
Fibrillarin-FKBP^F36V = molecular target: T1, Fibrillarin-FKBP^F36V (Homo sapiens, UniProt P62942, F37V); conditions: 500 nM, 10 h
T1 construct: endogenous in cells; host or cells: 293T, CRISPR/PITCh knock-in at the FBL locus

murine MLKL-FKBP^F36V = molecular target: T2, murine MLKL-FKBP^F36V (Homo sapiens, UniProt P62942, F37V); conditions: 31.2-500 nM, 5 h
T2 construct: expressed in transfected cells; host or cells: Mlkl-/- mouse dermal fibroblasts, doxycycline-inducible
T2 sequence (P62942 whole entry F37V): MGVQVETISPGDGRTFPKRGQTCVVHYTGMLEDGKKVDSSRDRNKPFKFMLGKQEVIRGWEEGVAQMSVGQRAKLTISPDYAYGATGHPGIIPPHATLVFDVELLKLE
Experimental: All timepoint experiments were performed as reverse timepoints in order to harvest all cells at the same time. At the indicated time points cells were lysed in NuPAGE LDS lysis buffer (Invitrogen) diluted to 1× in DISC lysis buffer (20 mM Tris-HCl pH7.5, 150 mM NaCl, 2 mM EDTA pH 8.0, 1% Triton X-100, 10% glycerol, H20)) supplemented with β-Mercaptoethanol (2%), protease and phosphatase inhibitors. Lysates were run through polypropylene columns (Pierce) to shred DNA. […] Membranes were blocked in 5% skim milk (Devondale) in TBS-T (TBS, 0.1% Tween-20) for 1 h prior to immunoblotting with primary antibodies overnight at 4 °C. Unless stated otherwise, all primary antibodies were diluted in TBS-T (TBS, 0.1% Tween-20) containing 5% BSA (Sigma A8022) and 0.04% sodium azide: HaloTag (1:1000, Promega; G9211), NanoLuc (1:500, Promega; N7000), β-actin (1:20,000, Sigma; A-1798), MLKL (1:1000, produced in-house; 3H1 clone)[39], FKBP (1:1000, R&D systems; 422513), caspase-8 (1:1000, Proteintech; 13423-1-AP), Histone H3 (1:1000, Abcam; ab10799), Cadherin (1:1000, Cell Signalling Technologies; 4068 T). Membranes were washed 3 × 5–10 min in TBS-T (TBS, 0.1% Tween-20) prior to the addition of the appropriate secondary antibodies conjugated with horseradish peroxidase (Jaxon laboratories). […]

[1] = molecular target: Halo-EGFP-NanoLuc-FKBP^F36V (H-E-N-F) fusion protein (UniProt P0A3G2+P62942+Q9GV45, A155T/A167V/A172T/A224E/A31E/A60N/A81I/C128F/C176G/D78G/E160K/E257K/F37V/F95D/H272N/I117V/K175M/K195N/K70R/L47V/L54V/L88M/L99Q/M102K/N193R/N227D/P142E/P291S/Q151K/Q38R/Q45L/S2A/S58T/T264A/V71I/Y165I/Y273L/Y87F); conditions: 5 h
Halo-EGFP-NanoLuc-FKBP^F36V (H-E-N-F) fusion protein, sequence (Q9GV45 other isoform, or with tags, fused parts or gaps with the stated changes): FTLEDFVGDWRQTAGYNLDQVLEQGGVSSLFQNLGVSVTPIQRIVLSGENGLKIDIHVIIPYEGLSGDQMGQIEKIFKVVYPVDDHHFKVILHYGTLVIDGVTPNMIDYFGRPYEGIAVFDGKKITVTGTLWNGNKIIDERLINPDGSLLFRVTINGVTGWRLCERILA
Halo-EGFP-NanoLuc-FKBP^F36V (H-E-N-F) fusion protein, sequence (P0A3G2 other isoform, or with tags, fused parts or gaps with the stated changes): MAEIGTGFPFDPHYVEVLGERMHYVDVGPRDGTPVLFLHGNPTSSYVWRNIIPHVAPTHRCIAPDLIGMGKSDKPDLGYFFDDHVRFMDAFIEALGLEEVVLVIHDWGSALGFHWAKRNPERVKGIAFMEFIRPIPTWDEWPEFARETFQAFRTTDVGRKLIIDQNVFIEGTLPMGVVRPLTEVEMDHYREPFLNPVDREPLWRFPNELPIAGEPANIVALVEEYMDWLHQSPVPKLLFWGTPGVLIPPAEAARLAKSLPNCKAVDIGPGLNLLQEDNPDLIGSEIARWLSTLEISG
Halo-EGFP-NanoLuc-FKBP^F36V (H-E-N-F) fusion protein, sequence (P62942 whole entry F37V, the tested form may be a part): as the sequence (P62942 whole entry F37V) above

T1 sequence (P62942 whole entry F37V): as above

Row | Structure (SMILES) | Dmax (densitometry) (Fibrillarin-FKBP^F36V) | degradation of murine MLKL-FKBP^F36V (murine MLKL-FKBP^F36V) | degradation of the H-E-N-F substrate protein by Western blot, comparison of NanoTACs ([1]; 125-500 nM) | low concentration triggering degradation of the fusion protein ([1]; Western blot)
1 | CC[C@H](C(=O)N1CCCC[C@H]1C(=O)O[C@H](CCc1ccc(OC)c(OC)c1)c1ccccc1OCC(=O)NCCCCCCC(=O)N[C@H](C(=O)N1C[C@H](O)C[C@H]1C(=O)N[C@@H](C)c1ccc(-c2scnc2C)cc1)C(C)(C)C)c1cc(OC)c(OC)c(OC)c1 [FV1] | ~ 95.9% | comparable degradation | – | –
2 | CCc1cccc(N(CC)C(=O)Cn2c(C(=O)NC3CCC(C(=O)NCCCCCCCC(=O)NCCCCNc4cccc5c4C(=O)N(C4CCC(=O)NC4=O)C5=O)CC3)cc3ccccc32)c1 (stereo not shown) [NC4] | – | – | consistently outperforming the first analogue NC1 | ~ 30 nM
